pIC50: −log10 of the molar value.
Experiments:
Flt3 (h) = target: T1, Flt3 (h) (Homo sapiens, UniProt P36888); assay: FLT3 in vitro peptide-based kinase assay, Protocol 1; format: biochemical
T1 sequence (P36888 27-993): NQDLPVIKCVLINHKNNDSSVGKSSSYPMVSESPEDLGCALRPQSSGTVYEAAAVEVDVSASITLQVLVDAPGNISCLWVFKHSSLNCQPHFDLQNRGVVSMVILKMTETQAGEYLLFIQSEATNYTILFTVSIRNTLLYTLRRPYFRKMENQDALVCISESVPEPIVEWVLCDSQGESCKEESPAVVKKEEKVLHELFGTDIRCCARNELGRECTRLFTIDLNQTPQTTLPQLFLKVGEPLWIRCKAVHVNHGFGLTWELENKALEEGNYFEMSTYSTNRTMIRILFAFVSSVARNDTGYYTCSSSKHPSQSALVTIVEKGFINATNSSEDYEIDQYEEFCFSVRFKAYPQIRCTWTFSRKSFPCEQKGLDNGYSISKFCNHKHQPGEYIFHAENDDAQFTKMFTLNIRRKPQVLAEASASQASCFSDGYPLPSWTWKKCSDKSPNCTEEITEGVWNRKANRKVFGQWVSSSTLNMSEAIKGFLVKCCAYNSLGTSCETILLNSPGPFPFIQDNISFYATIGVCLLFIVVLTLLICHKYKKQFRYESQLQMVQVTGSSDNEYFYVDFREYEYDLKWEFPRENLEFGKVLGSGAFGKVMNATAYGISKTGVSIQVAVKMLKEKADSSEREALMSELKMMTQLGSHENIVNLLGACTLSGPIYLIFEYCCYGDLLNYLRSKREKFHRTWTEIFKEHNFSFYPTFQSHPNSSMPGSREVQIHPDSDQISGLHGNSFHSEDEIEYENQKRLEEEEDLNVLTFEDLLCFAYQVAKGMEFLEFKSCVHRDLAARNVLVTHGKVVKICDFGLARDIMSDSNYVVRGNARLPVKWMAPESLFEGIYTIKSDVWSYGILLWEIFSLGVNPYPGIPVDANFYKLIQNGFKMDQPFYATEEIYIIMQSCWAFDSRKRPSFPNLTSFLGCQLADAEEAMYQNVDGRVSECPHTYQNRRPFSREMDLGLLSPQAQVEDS
Experimental: The inhibition of FLT3 kinase was assessed using FLT3 recombinant protein in an in vitro peptide-based kinase assay.
In a final reaction volume of 25 μL, Flt3 (h) (5-10 mU) is incubated with 8 mM MOPS pH 7.0, 0.2 mM EDTA, 50 μM EAIYAAPFAKKK, 10 mM MgAcetate and [g-33P-ATP] (specific activity approx. 500 cpm/pmol, concentration as required). The reaction is initiated by the addition of the MgATP mix. After incubation for 40 minutes at room temperature, the reaction is stopped by the addition of 5 μL of a 3% phosphoric acid solution. 10 μL of the reaction is then spotted onto a P30 filtermat and washed three times for 5 minutes in 75 mM phosphoric acid and once in methanol prior to drying and scintillation counting.

FLT3 wt = target: T2, FLT3 wt (Homo sapiens, UniProt P36888); assay: radiometric protein kinase assay (33PanQinase Activity Assay) FLT3 wt, Protocol 2; format: biochemical; settings: ATP 3 μM
T2 construct: purchased Invitrogen Corporation
T2 sequence (P36888 27-993): T1 sequence (P36888 27-993)
Experimental: A radiometric protein kinase assay (33PanQinase® Activity Assay) was used for measuring the kinase activity. All kinase assays were performed in 96-well FlashPlates™ from PerkinElmer (Boston, Mass., USA) in a 50 μl reaction volume. The reaction cocktail was pipetted in four steps in the following order: • 20 μl of assay buffer (standard buffer) • 5 μl of ATP solution (in H2O) • 5 μl of test compound (in 10% DMSO) • 10 μl of substrate/10 μl of enzyme solution (premixed)
The assay for FLT3 wt contains 70 mM HEPES-NaOH pH 7.5, 3 mM MgCl2, 3 mM MnCl2, 3 μM Na-orthovanadate, 1.2 mM DTT, ATP (3 μM), [γ-33P]-ATP (approx. 5×1005 cpm per well), protein kinase FLT3 wt (6.1 nM) and substrate (poly(Ala,Glu,Lys,Tyr)6:2:5:1), 0.125 μg/50 μl).
The kinases are obtained from Invitrogen Corporation.
The reaction cocktails were incubated at 30° C. for 60 minutes. The reaction was stopped with 50 μl of 2% (v/v) H3PO4, plates were aspirated and washed two times with 200 μl 0.9% (w/v) NaCl. Incorporation of 33Pi was determined with a microplate scintillation counter.

melting point [°C]	pIC50 (Flt3 (h))	pIC50 (FLT3 wt)	Compound
> 300	< 6.00		CN1CCC(C(=O)N2CCOCCNc3ccn4ncc(c4n3)-c3cccc2c3)CC1 [Compound 2]
> 300	> 7.00		c1cc2cc(c1)-c1cnn3ccc(nc13)NCCN(CCN1CCOCC1)CCO2 [Compound 5]
> 300	> 7.00		CC(C)N1CCNc2ccn3ncc(c3n2)-c2cccc(c2)OCC1 [Compound 6]
	> 7.00		O=C(NCCCN1CCCC1)N1CCNCCOc2cccc(c2)-c2cnn3ccc1nc23 [Compound 10]
	< 6.00		O=C1NCCNCCN(CCO)c2ccn3ncc(c3n2)-c2cccc1c2 [Compound 14]
> 300			O=C(NCCF)c1ccc2cc1OCCOCCNc1ccn3ncc-2c3n1 [Compound 20]
		6.00 to 7.00	c1cc2cc(c1)-c1cnn3ccc(nc13)NCCCNCCO2 [Compound 33]

The remaining lines, values behind:

Compound	melting point [°C]	pIC50 (Flt3 (h))	pIC50 (FLT3 wt)
O=C(O)c1ccc2cc1OCCOCCNc1ccn3ncc-2c3n1 [Compound 1]	> 300	> 7.00	
O=C1NCCCNc2ccn3ncc(c3n2)-c2cccc(c2)N1 [Compound 3]	> 300	> 7.00	
NC(=O)c1ccc2cc1OCCNCCNc1ccn3ncc-2c3n1 [Compound 4]	> 300	> 7.00	
O=C1c2cccc(c2)-c2cnn3ccc(nc23)NCCNCCN1CCO [Compound 7]	271.6	6.00 to 7.00	
O=C1NCCN(CCO)CCNc2ccn3ncc(c3n2)-c2cccc1c2 [Compound 8]	283.9	> 7.00	
CN1CCNC(=O)c2cccc(c2)-c2cnn3ccc(nc23)NCC1 [Compound 9]	287.6	6.00 to 7.00	
CN(C)CCNC(=O)N1CCNCCOc2cccc(c2)-c2cnn3ccc1nc23 [Compound 11]	> 300	6.00 to 7.00	
OCc1ccc2cc1OCCOCCNc1ccn3ncc-2c3n1 [Compound 12]	> 300	> 7.00	
c1cc2cc(c1)-c1cnn3ccc(nc13)OCCN(CCCN1CCCC1)CCO2 [Compound 13]	> 300	< 6.00	
O=C1NCCN(C2CC2)CCN(CCO)c2ccn3ncc(c3n2)-c2cccc1c2 [Compound 15]		6.00 to 7.00	
O=C1CNCCNc2ccn3ncc(c3n2)-c2cccc(c2)N1 [Compound 31]			< 6.00
COc1ccc2cc1OCCNCCNc1ccn3ncc-2c3n1 [Compound 32]			6.00 to 7.00
O=C1CNCCNc2ccn3ncc(c3n2)-c2cccc(c2)CN1 [Compound 34]			< 6.00
Fc1cc2cc(c1)-c1cnn3ccc(nc13)NCCOCCCO2 [Compound 35]	234.9		

From patent US9370519B2, “Macrocyclic FLT3 kinase inhibitors” (Oncodesign S.A., priority 2011, dated 2016)
